Values quoted from earlier work, collected in patent US8841262B2, “Agent for inhibiting peritoneal membrane thickening” (CCI Corporation, priority 2009, dated 2014).

Experiments:
[1] = system: vascular endothelial growth factor (VEGF); conditions: administration of TNP-470, reported in Non-Patent Literature 1
[2] = system: peritoneal membrane thickening; conditions: ganciclovir infused into the abdominal cavity, in 2 weeks; reported in Non-Patent Literature 3

Row | SMILES | myofibroblastic cell proliferation [1] | neoangiogenesis [1] | peritoneal membrane thickening after chlorhexidine [2]
1 | CO[C@@H]1[C@H](OC(=O)NC(=O)CCl)CC[C@]2(CO2)[C@H]1[C@@]1(C)O[C@@H]1CC=C(C)C [TNP-470] | suppression | inhibition | 
2 | Nc1nc(O)c2ncn(COC(CO)CO)c2n1 [ganciclovir] |  |  | alleviated
